Eight compounds from patent US20250296959A1, “B7-H3 TARGETING PEPTIDES AND CONSTRUCTS THEREOF” (Mariana Oncology Inc., priority 2024, published 2025) can be followed below.

As a reminder, the Kd is the equilibrium constant for the complex coming apart.

The assay has as its target T1, human 4lg B7-H3 (Homo sapiens, UniProt Q5ZPR3).
T1 sequence (Q5ZPR3 29-534): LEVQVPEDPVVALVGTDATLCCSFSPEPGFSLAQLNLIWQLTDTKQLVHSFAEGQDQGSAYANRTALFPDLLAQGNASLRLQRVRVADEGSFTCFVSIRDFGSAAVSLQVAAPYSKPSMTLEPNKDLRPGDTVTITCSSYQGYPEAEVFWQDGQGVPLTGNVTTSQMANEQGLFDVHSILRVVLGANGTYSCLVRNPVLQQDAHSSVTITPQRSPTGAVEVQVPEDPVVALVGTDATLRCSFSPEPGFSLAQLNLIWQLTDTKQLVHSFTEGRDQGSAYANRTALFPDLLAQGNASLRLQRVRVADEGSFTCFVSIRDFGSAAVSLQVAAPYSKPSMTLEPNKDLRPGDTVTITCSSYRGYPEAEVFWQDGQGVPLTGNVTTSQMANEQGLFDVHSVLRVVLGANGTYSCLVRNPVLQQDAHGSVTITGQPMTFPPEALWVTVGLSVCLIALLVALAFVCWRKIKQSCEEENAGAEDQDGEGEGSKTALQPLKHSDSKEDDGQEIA
Put plainly: Affinity determination by surface plasmon resonance (SPR) to 4Ig B7-H3. The note with it: 4Ig B7-H3. In general terms: Surface plasmon resonance follows binding to a sensor surface in real time, without labels.

[1] abbreviates: SPR KD—25° C., 25° C. flow cell temperature.
Where [2] appears, read: SPR KD—37° C., 37° C. flow cell temperature.

SMILES strings stand for the structures. Starred links: 1 amine or outer side, 2 acyl side, 3 side chain; linkers in the order of their positions; H or OH if unused. Positions of bridges follow the written chain, without caps; N, C: chain ends. Non-standard residues stand in square brackets, D forms with d. Residues, ends and D or L forms follow the SMILES beside them. Groups on a side chain read outwards from the residue. *: point of attachment. Ala(piperidin-4-yl) = O=C([C@H](CC1CCN([*:3])CC1)N[*:1])[*:2]; Phe(3R-OH) = O=C([C@@H](N[*:1])[C@H](O[*:3])c1ccccc1)[*:2]; Phe(3-CH2NH2) = O=C([C@H](Cc1cccc(CN[*:3])c1)N[*:1])[*:2]; DOTA = O=C(O)CN1CCN(CC(=O)O)CCN(CC(=O)*)CCN(CC(=O)O)CC1; Trp(5-F) = N[C@@H](Cc1c[nH]c2ccc(F)cc12)C(=O)O; C16 diacid = O=C(O)CCCCCCCCCCCCCCC(=O)*; γGlu = O=C(O)[C@H](CCC(=O)[*:2])N[*:1]; 1Nal = N[C@@H](Cc1cccc2ccccc12)C(=O)O; Ala(4-THP) = N[C@@H](CC1CCOCC1)C(=O)O; Val(3-OH) = CC(C)(O)[C@H](N)C(=O)O; Aad = N[C@@H](CCCC(=O)O)C(=O)O; PEG4 = NCCOCCOCCOCCOCCC(=O)O; Tle = CC(C)(C)[C@H](N)C(=O)O; hLeu = CC(C)CC[C@H](N)C(=O)O; Nle = CCCC[C@H](N)C(=O)O; Sar = CNCC(=O)O

Compound `CCCC[C@H](NC(C)=O)C(=O)N[C@@H](Cc1ccc(O)cc1)C(=O)N[C@H]1CSSC[C@@H](C(=O)N[C@@H](Cc2c[nH]c3ccccc23)C(=O)N[C@@H](Cc2ccccc2)C(=O)N[C@H](C(=O)N[C@H](CCCCNC(=O)CN2CCN(CC(=O)O)CCN(CC(=O)O)CCN(CC(=O)O)CC2)C(=O)O)[C@@H](C)O)NC(=O)[C@H](Cc2ccc(O)cc2)NC(=O)[C@H](C(C)C)NC(=O)[C@H](CCCC(=O)O)NC(=O)[C@H](Cc2ccc(O)cc2)NC(=O)[C@H](CCCCN)NC(=O)CNC(=O)[C@H](C(C)C)NC1=O` [compound 102, Ac-Nle-Y-C-V-G-K-Y-HomoGlu-V-Y-C-W-F-Thr-dLys(DOTA)-COOH] (Ac-[Nle]YCVGKY[Aad]VYCWFT[dK](DOTA)-OH; disulfide 3-11) gave a Kd under setting [1] of 100 to 300 nM.

In turn, `CC(=O)N[C@@H](CCC(C)C)C(=O)N[C@@H](Cc1ccc(O)cc1)C(=O)N[C@H]1CSSC[C@@H](C(=O)N[C@@H](Cc2c[nH]c3ccc(F)cc23)C(=O)N[C@@H](Cc2ccccc2)C(=O)N[C@H](C(=O)N[C@H](CCCCNC(=O)CN2CCN(CC(=O)O)CCN(CC(=O)O)CCN(CC(=O)O)CC2)C(=O)O)C(C)(C)O)NC(=O)[C@H](Cc2ccc(O)cc2)NC(=O)[C@H](C(C)C)NC(=O)[C@H](CC(=O)O)NC(=O)[C@H](CC2CCOCC2)NC(=O)[C@H](CCCCNC(=O)CC[C@H](NC(=O)CCCCCCCCCCCCCCC(=O)O)C(=O)O)NC(=O)CNC(=O)[C@H](C(C)(C)C)NC1=O` [compound 405, Ac-hLeu-Y-C-Tbg-G-K(yE-C16OH)-ThpA-D-V-Y-C-5FW-F-hydroxyVal-dLys(DOTA)-COOH] (Ac-[hLeu]YC[Tle]GK([γGlu-C16 diacid])[Ala(4-THP)]DVYC[Trp(5-F)]F[Val(3-OH)][dK](DOTA)-OH; disulfide 3-11) yielded a Kd under setting [2] of 10 to 100 nM.

Compound `CCCC[C@H](NC(C)=O)C(=O)N[C@@H](Cc1ccc(O)cc1)C(=O)N[C@H]1CSSC[C@@H](C(=O)N[C@@H](Cc2c[nH]c3ccccc23)C(=O)N[C@@H](Cc2ccccc2)C(=O)N[C@H](C(=O)N[C@H](CCCCNC(=O)CN2CCN(CC(=O)O)CCN(CC(=O)O)CCN(CC(=O)O)CC2)C(N)=O)[C@@H](C)O)NC(=O)[C@H](Cc2ccc(O)cc2)NC(=O)[C@H](C(C)(C)C)NC(=O)[C@H](CC(=O)O)NC(=O)[C@H](Cc2ccc(O)cc2)NC(=O)[C@H](CCCCN)NC(=O)CNC(=O)[C@H](C(C)C)NC1=O` [compound 62, Ac-Nle-Y-C-V-G-K-Y-D-Tbg-Y-C-W-F-Thr-dLys(DOTA)-CONH2] (Ac-[Nle]YCVGKYD[Tle]YCWFT[dK](DOTA)-NH2; disulfide 3-11) showed a Kd under setting [1] of 100 to 300 nM.

For the compound `CC(=O)N[C@@H](CCC(C)C)C(=O)N[C@@H](Cc1ccc(O)cc1)C(=O)N[C@H]1CSSC[C@@H](C(=O)N[C@@H](Cc2cccc3ccccc23)C(=O)N[C@@H](Cc2ccccc2)C(=O)N2CCC[C@H]2C(=O)N[C@H](CCCCNC(=O)CN2CCN(CC(=O)O)CCN(CC(=O)O)CCN(CC(=O)O)CC2)C(N)=O)NC(=O)[C@H](Cc2ccc(O)cc2)NC(=O)[C@H](C(C)C)NC(=O)[C@H](CC(=O)O)NC(=O)[C@H](Cc2ccc(O)cc2)NC(=O)[C@H](CCCCN)NC(=O)CNC(=O)[C@H](C(C)C)NC1=O` [compound 245, Ac-hLeu-Y-C-V-G-K-Y-D-V-Y-C-1Nal-F-Pro-dLys(DOTA)-CONH2] (Ac-[hLeu]YCVGKYDVYC[1Nal]FP[dK](DOTA)-NH2; disulfide 3-11), the Kd under setting [1] is 1 to 10 nM.

With `CC(=O)N[C@@H](CCC(C)C)C(=O)N[C@@H](Cc1ccc(O)cc1)C(=O)N[C@H]1CSSC[C@@H](C(=O)N[C@@H](Cc2cccc3ccccc23)C(=O)N[C@@H](Cc2ccccc2)C(=O)N2CCC[C@H]2C(N)=O)NC(=O)[C@H](Cc2ccc(O)cc2)NC(=O)[C@H](C(C)C)NC(=O)[C@H](CC(=O)O)NC(=O)[C@H](Cc2cccc(CNC(=O)CC[C@H](NC(=O)CC[C@H](NC(=O)CC[C@H](NC(=O)CN3CCN(CC(=O)O)CCN(CC(=O)O)CCN(CC(=O)O)CC3)C(=O)O)C(=O)O)C(=O)O)c2)NC(=O)[C@H](CCCCN)NC(=O)CNC(=O)[C@H](C(C)(C)C)NC1=O` [compound 258, Ac-hLeu-Y-C-Tbg-G-K-MAF(gE-gE-gE-DOTA)-D-V-Y-C-1Nal-F-Pro-CONH2] (Ac-[hLeu]YC[Tle]GK[Phe(3-CH2NH2)]([γGlu-γGlu-γGlu-DOTA])DVYC[1Nal]FP-NH2; disulfide 3-11), under setting [1], the Kd lay in the range of 1 to 10 nM.

As for `CC(=O)N[C@@H](CCC(C)C)C(=O)N[C@@H](Cc1ccc(O)cc1)C(=O)N[C@H]1CSSC[C@@H](C(=O)N[C@@H](Cc2cccc3ccccc23)C(=O)N[C@@H](Cc2ccccc2)C(=O)N[C@H](C(=O)N[C@H](C)C(=O)O)C(C)(C)O)NC(=O)[C@H](Cc2ccc(O)cc2)NC(=O)[C@H](C(C)C)NC(=O)[C@H](CC(=O)O)NC(=O)[C@H](CC2CCN(C(=O)CCOCCOCCOCCOCCNC(=O)CN3CCN(CC(=O)O)CCN(CC(=O)O)CCN(CC(=O)O)CC3)CC2)NC(=O)[C@H](CC2CCNCC2)NC(=O)CNC(=O)[C@H](C(C)(C)C)NC1=O` [compound 453, Ac-hLeu-Y-C-Tbg-G-PipAla-Pip(PEG4-DOTA)Ala-D-V-Y-C-1Nal-F-hydroxyVal-dAla-COOH] (Ac-[hLeu]YC[Tle]G[Ala(piperidin-4-yl)][Ala(piperidin-4-yl)]([PEG4-DOTA])DVYC[1Nal]F[Val(3-OH)][dA]-OH; disulfide 3-11), under setting [2], the Kd is below 1 nM.

`CC(=O)N[C@@H](CCC(C)C)C(=O)N[C@@H](Cc1ccc(O)cc1)C(=O)N[C@H]1CSSC[C@@H](C(=O)N[C@@H](Cc2c[nH]c3ccc(F)cc23)C(=O)N[C@@H](Cc2ccccc2)C(=O)N[C@H](C(=O)N[C@H](CCCCNC(=O)CN2CCN(CC(=O)O)CCN(CC(=O)O)CCN(CC(=O)O)CC2)C(N)=O)[C@@H](C)O)NC(=O)[C@H](Cc2ccc(O)cc2)NC(=O)[C@H](C(C)C)NC(=O)[C@H](CC(=O)O)NC(=O)[C@H](Cc2ccc(O)cc2)NC(=O)[C@H](CCCCN)NC(=O)CN(C)C(=O)[C@H](C(C)(C)C)NC1=O` [compound 78, Ac-hLeu-Y-C-Tbg-Sar-K-Y-D-V-Y-C-5FW-F-Thr-dLys(DOTA)-CONH2] (Ac-[hLeu]YC[Tle][Sar]KYDVYC[Trp(5-F)]FT[dK](DOTA)-NH2; disulfide 3-11) had a dissociation constant (Kd) under setting [1] of 1 to 10 nM.

Turning to `CC(=O)N[C@@H](CCC(C)C)C(=O)N[C@@H](Cc1ccc(O)cc1)C(=O)N[C@H]1CSSC[C@@H](C(=O)N[C@@H](Cc2c[nH]c3ccc(F)cc23)C(=O)N[C@H](C(=O)N[C@H](C(=O)N[C@H](CCCCNC(=O)CN2CCN(CC(=O)O)CCN(CC(=O)O)CCN(CC(=O)O)CC2)C(=O)O)C(C)(C)O)[C@H](O)c2ccccc2)NC(=O)[C@H](Cc2ccc(O)cc2)NC(=O)[C@H](C(C)C)NC(=O)[C@H](CC(=O)O)NC(=O)[C@H](CC2CCOCC2)NC(=O)[C@H](CC2CCNCC2)NC(=O)CNC(=O)[C@H](C(C)(C)C)NC1=O` [compound 469, Ac-hLeu-Y-C-Tbg-G-PipAla-ThpA-D-V-Y-C-5FW-[(2S, 3R)beta-OH-Phe]-hydroxyVal-dLys(DOTA)-COOH] (Ac-[hLeu]YC[Tle]G[Ala(piperidin-4-yl)][Ala(4-THP)]DVYC[Trp(5-F)][Phe(3R-OH)][Val(3-OH)][dK](DOTA)-OH; disulfide 3-11), the equilibrium dissociation constant (Kd) under setting [2] is below 1 nM.
